From BindingDB's records for doi:10.1021/jm040209d (University of Illinois At Urbana-Champaign, 2005)
pKi: −log10 of the molar value.

What follows are compounds tested against Farnesyl diphosphate synthase (Leishmania major) (assay: Binding affinity towards Farnesyl diphosphate synthase from leishmania major).

COc1ccc[n+](CC(O)(P(=O)([O-])O)P(=O)(O)O)c1 (configuration not stated) [hydrogen 1-hydroxy-2-(3-methoxypyridinium-1-yl)-1-phosphonoethylphosphonate] and Cc1ccc[n+](CC(O)(P(=O)([O-])O)P(=O)(O)O)c1 (configuration not stated) [hydrogen 1-hydroxy-2-(3-methylpyridinium-1-yl)-1-phosphonoethylphosphonate] are within 0.2 log units of each other in pKi: 7.52 for the first, 7.42 for the second.

First: Cc1cccc(Cc2ccc[n+](CC(O)(P(=O)([O-])O)P(=O)(O)O)c2)c1 (configuration not stated) [hydrogen 1-hydroxy-2-[3-(3-methylbenzyl)pyridinium-1-yl]-1-phosphonoethylphosphonate]
Second: O=P([O-])(O)C(O)(C[n+]1cccc(Cc2ccccc2)c1)P(=O)(O)O (configuration not stated) [hydrogen 2-(3-benzylpyridinium-1-yl)-1-hydroxy-1-phosphonoethylphosphonate]
The pKi of the first is 0.35 log units higher: 7.15 for the first, 6.80 for the second. The first binds more tightly here.

Compared with CCCCc1ccc[n+](CC(O)(P(=O)([O-])O)P(=O)(O)O)c1 (configuration not stated) [hydrogen 2-(3-butylpyridinium-1-yl)-1-hydroxy-1-phosphonoethylphosphonate], O=P([O-])(O)C(O)(C[n+]1cccc(F)c1)P(=O)(O)O (configuration not stated) [hydrogen 2-(3-fluoropyridinium-1-yl)-1-hydroxy-1-phosphonoethylphosphonate] is 0.40 log units lower in pKi: 7.70 for the first, 7.30 for the second.

O=P([O-])(O)C(O)(C[n+]1cccc(-c2ccc(O)cc2)c1)P(=O)(O)O (configuration not stated) [sodium hydrogen 1-hydroxy-2-[3-(4-oxidophenyl)pyridinium-1-yl]-1-phosphonoethylphosphonate] showed a pKi of 7.12.
